Data reported in US4490393A, “Thiazolylurea derivatives, a process for preparing same and a pharmaceutical composition containing same” (Mitsui Toatsu Kagaki Kabushiki Kaisha, priority 1981, dated 1984).
Counter-ions that a name gives are not always drawn.

System: ddY male mice
Test: Acute Toxicity Test through Oral Administration (Test Example 3)
Assay type: in vivo
Conditions: observed for 7 days
Description: To each of a group of five ddY male mice, was orally administered a medicine dissolved or suspended in physiological saline.

| Structure (SMILES) | estimated LD50 [mg/kg] |
| --- | --- |
| c1ccc([C@H]2CN3CCSC3=N2)cc1 [Levamisole.HCl, Levamisole hydrochloride, reference compound] | 200 to 300 |

System: delayed hypersensitivity induced by picryl chloride
Test: Reinforcement Test of Delayed Hypersensitivity (Test Example 1)
Assay type: in vivo, ICR male mice
Conditions: ICR mice, oral 50 mg per Kg simultaneously with sensitization; 24 hours after challenging; average of both pinnae of eight mice; * P<0.05, ** P<0.01 vs control
Description: The delayed hypersensitivity induced on a mouse when picryl chloride(2-chloro-1,3,5-trinitrobenzene) is coated on the skin of the mouse is known as a typical cellular immunity.
This test system was used for the reinforcement tests of the delayed hypersensitivity.
Groups of eight ICR male mice, each having a body weight of about 30 g or so, were used for the test.
Sensitization was effected by coating a 3% solution of picryl chloride in a 4/1 mixture of olive oil and acetone on the shaved abdomen of each of the mice.
Simultaneously with the sensitization, a solution or suspension of a compound of the present invention dissolved or suspended in a 0.2% solution of carboxymethylcellulose in a physiological saline was orally administered to the mouse at a dose of 50 mg per Kg of its body weight. To each mouse of a control group, was similarly administered a 0.2% carboxymethylcellulose solution in a physiological saline.
The delayed hypersensitivity was induced 7 days after the sensitization by pinching each of the pinnae of each mouse with a pair of forceps whose tip portions were wrapped with a felt impregnated with a 1% solution of picryl chloride in olive oil and coating the pinnae with the solution. The thickness of each pinna was measured before the challenging and 24 hours after the challenging and the ratio of increase of the thickness (average value of both of the pinnae of the eight mice) is shown in Table 1.
For comparison, a similar test was carried out using Levamisole hydrochloride. The results thereof are also shown.
F.t tests were carried out on the thus-obtained test results.

| Structure (SMILES) | Ratio of Increase of Pinna Thickness [%] |
| --- | --- |
| c1ccc([C@H]2CN3CCSC3=N2)cc1 [Levamisole.HCl, Levamisole hydrochloride, reference compound] | 31.2 |
| O=C(Nc1nc(-c2ccccc2)cs1)Nc1nc(-c2ccccc2)cs1 [drawing 8] | 37.5 |
| Cc1ccc(-c2csc(NC(=O)Nc3nc(-c4ccc(C)cc4)cs3)n2)cc1 [drawing 9] | 36.1 |
| COc1ccc(-c2csc(NC(=O)Nc3nc(-c4ccc(OC)cc4)cs3)n2)cc1 [drawing 10] | 31.7 |
| CSc1sc(NC(=O)Nc2nc(-c3ccccc3)c(SC)s2)nc1-c1ccccc1 [drawing 11] | 29.0 |
| Cc1cc(NC(=O)Nc2nc(-c3ccccc3)cs2)no1 [drawing 12] | 37.8 |
| O=C(Nc1ccccn1)Nc1nc(-c2ccccc2)cs1 [drawing 13] | 25.4 |

System: adjuvant arthritis caused by the injection of a Mycobacterium tuberculosis adjuvant
Test: Adjuvant Arthritis Test (Test Example 2)
Assay type: in vivo, SD male rats
Conditions: SD rats, subcutaneous 5 mg per Kg, 9 times; average value from 16th to 20th days; left hind leg; * P<0.05, ** P<0.01 vs control
Description: The adjuvant arthritis in rats caused by the injection of a Mycobacterium tuberculosis adjuvant is often utilized for a model test of chronic rheumatoid arthritis in human.
The mechanism of manifestation of this disease has not completely been elucidated, but it is known that cellular immunity plays an important role. The immuno-modulating activity of the compounds of the present invention was investigated in accordance with this known adjuvant arthritis test.
8-Week-old SD male rats were used for the test. In 0.1 ml of fluid paraffin, 0.4 mg of dry dead cells of Mycobacterium tuberculosis were suspended, and the suspension was injected under the heel skin of the right hind leg of each rat. Each of the compounds of the present invention was subcutaneously administered 9 times in total before and after the injection of the adjuvant. Each of the compounds of the present invention was dissolved or suspended in a 0.2% solution of carboxymethylcellulose in physiological saline and administered to each rat at a dose of 5 mg per Kg of the body weight. The swollen volume of the left hind leg was measured during the period of from the day of injection to the day of completion of the test, and the swelling ratio was calculated. For comparison, a similar test was conducted using Levamisole hydrochloride. F.t tests were carried out on the test results obtained.

| Structure (SMILES) | Swell suppression ratio to control group [%] |
| --- | --- |
| c1ccc([C@H]2CN3CCSC3=N2)cc1 [Levamisole.HCl, Levamisole hydrochloride, reference compound] | 19.8 |
| O=C(Nc1nc(-c2ccccc2)cs1)Nc1nc(-c2ccccc2)cs1 [drawing 14] | 35.7 |
| Cc1ccc(-c2csc(NC(=O)Nc3nc(-c4ccc(C)cc4)cs3)n2)cc1 [drawing 15] | 29.3 |
| COc1ccc(-c2csc(NC(=O)Nc3nc(-c4ccc(OC)cc4)cs3)n2)cc1 [drawing 16] | 37.5 |
| CSc1sc(NC(=O)Nc2nc(-c3ccccc3)c(SC)s2)nc1-c1ccccc1 [drawing 17] | 28.8 |
| Cc1cc(NC(=O)Nc2nc(-c3ccccc3)cs2)no1 [drawing 18] | 26.6 |
| O=C(Nc1ccccn1)Nc1nc(-c2ccccc2)cs1 [drawing 19] | 34.6 |
